Consider 17 molecules from patent publication US20120190579A1, “Functionalisation of Solid Substrates” (priority 2009, published 2012).

In data set [1] the target is neutravidin-coated agarose beads (Gallus gallus, UniProt P02701). Nature of the data set: Pull-down and release of biotinylated protein adduct on neutravidin coated agarose beads. The following applies: release with β-mercaptoethanol (25 mM) 2 h at 37° C.; densitometry vs protein series dilution. Here is the method: Protein/biotin-PEG-bromomaleimide adduct (200 μL) and unmodified model protein (200 μL) were washed independently with PBS buffer (3×500 μL) in a concentrator (Vivaspin, cut off 10 k) yielding protein solutions (300 μL) (In). For each of the protein solutions obtained, neutravidin-coated agarose beads (750 μL of 50% aqueous slurry) were washed with PBS (2×500 μL). Protein solution (300 μL) was then added to the beads and the mixture incubated at 4° C. for 30 mins. The mixture was centrifuged and the flow through (FT) collected. The beads were washed with PBS (2×500 μL) and both wash fractions collected (W1 and W2). Protein was released from the beads by incubation in PBS (300 μL) containing β-mercaptoethanol (25 mM) for 2 h at 37° C. The sample was centrifuged and the eluant (El) containing cleaved GrB2-SH2 domain L111C collected.
The amount of protein recovered was determined as 44% by comparison with a protein series dilution via densitometry. However, correcting for irreversibly physisorbed protein (determined using the unmodified protein control) the corrected recovery was 71%.

For data set [2], the target named is T1, human somatostatin receptor 2 (Homo sapiens, UniProt P30874).
T1 construct: host or cells: HEK293 cells stably expressing Kir3.1 and Kir3.2A
T1 sequence (P30874 whole entry): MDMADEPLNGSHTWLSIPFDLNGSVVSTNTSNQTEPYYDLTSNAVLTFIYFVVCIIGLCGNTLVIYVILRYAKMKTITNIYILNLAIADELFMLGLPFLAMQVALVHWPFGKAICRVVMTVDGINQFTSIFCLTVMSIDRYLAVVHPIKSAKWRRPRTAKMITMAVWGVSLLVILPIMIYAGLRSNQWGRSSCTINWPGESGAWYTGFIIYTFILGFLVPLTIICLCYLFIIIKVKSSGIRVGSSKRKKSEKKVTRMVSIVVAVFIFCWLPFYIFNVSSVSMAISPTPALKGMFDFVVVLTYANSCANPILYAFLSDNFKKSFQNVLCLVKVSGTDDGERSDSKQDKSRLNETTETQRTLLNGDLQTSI
Nature of the data set: Whole cell patch-clamp current recordings of bridged somatostatin analogues. The following applies: Pertussis toxin 100 ng/ml overnight; Tertiapin 100 nM. In kind it is cell-based. (In general: Patch clamp records ionic current or voltage across a cell membrane.)
Method: HEK 293 cells expressing HKIR3.1/3.2 channel and human somatostatin receptor 2 were treated with these compounds, and whole cell patch-clamp current recordings taken.
HEK293 cells (human embryonic kidney cell line) stably expressing Kir3.1 and Kir3.2A channels were maintained in minimum essential medium supplemented with 10% foetal calf serum and 727 μg of G418 (Invitrogen), at 37° C. in humidified atmosphere (95% O2, 5% CO2). Cells were transiently transfected with SSTR2DNA (Missouri S&T cDNA Resource Center) along with pEGFP-N1 (Clontech) for visualization of transfected cells using epifluorescence. […]
Somatostatin and its analogues were dialysed for 24 h at 4° C. in buffer (50 mM sodium phosphate, pH 6.2) to remove the organic solvents. After dialysis the concentration was determined and the peptides stored at 4° C. […]
Whole cell patch-clamp current recordings were performed with an Axopatch 200B amplifier (Axon Instruments) using fire-polished pipettes with a resistance of 3-4 MΩ pulled from filamented borosilicated glass capillaries (Harvard Apparatus, 1.5 mm OD×1.17 mm ID). Data was acquired and analysed via a Digidata 1322A interface (Axon Instruments) and pCLAMP software (version 8.1, Axon Instruments). […] For each cell it was assessed if flow artifacts resulting from the pressure of drug application were present. […]

For orientation: melting point means the temperature, or range, at which the solid turns liquid. In the case of `O=C1C=C(Br)C(=O)N1`, the melting point fell in the range of 148 to 151 °C.

Molecule `CN1C(=O)C=C(Br)C1=O` had a melting point of 77 to 79 °C.

Regarding `COC(=O)[C@H](CSC1=CC(=O)NC1=O)NC(=O)OC(C)(C)C`, the melting point is 145 to 147 °C.

For `COC(=O)[C@H](CSC1=CC(=O)N(C)C1=O)NC(=O)OC(C)(C)C`, the melting point lay in the range of 101 to 103 °C.

For the molecule `C=CCCNC1=CC(=O)NC1=O`, the melting point fell in the range of 68 to 76 °C.

`O=C1NC(=O)C23NCC[C@H]2C[C@H]13` (some centres unmarked) gave a melting point of 110 to 113 °C.

`O=C1NC(=O)C(I)=C1I` came in with a melting point of 238 to 241 °C.

In turn, `O=C1NC(=O)C(SCCO)=C1SCCO` returned a melting point of 46 to 50 °C.

`O=C1NC(=O)C(Sc2ccccn2)=C1Sc1ccccn1` had a melting point of 70 to 72 °C.

The molecule `O=C1CC2(SCCS2)C(=O)N1` yielded a melting point of 112 to 115 °C.

The molecule `CCCCCCSC1=CC(=O)NC1=O` came in with a melting point of 99 to 101 °C.

Molecule `CC(C)(C)OC(=O)NCCOCCOCCNC(=O)CCCC[C@@H]1SC[C@@H]2NC(=O)N[C@@H]21` (stereo in doubt) came in with a melting point of 106 to 108 °C.

Consider `O=C(CCCC[C@@H]1SC[C@@H]2NC(=O)N[C@@H]21)NCCOCCOCCN1C(=O)C=C(Br)C1=O` (stereo in doubt), for which the melting point was in the range of 95 to 98 °C.

Molecule `O=C(CCCC[C@@H]1SC[C@@H]2NC(=O)N[C@@H]21)NCCOCCOCCN1C(=O)C(Br)=C(Br)C1=O` (stereo in doubt) showed a melting point of 100 to 102 °C.

On to “GrB2-SH2 Domain L111C/Biotin-PEG-bromomaleimide Adduct”, for which, in data set [1], the “amount of protein recovered” value is 44%.

Take Pertussis toxin: the “GIRK currents after treatment of cells with inhibitor (control)” value in data set [2] is on record as “currents were largely inhibited”.

As to Tertiapin Q, in data set [2], the “GIRK currents after treatment of cells with inhibitor (control)” value is reported as “currents were largely inhibited”.
